Reference: PMC5916850 (Bioorganic & medicinal chemistry letters, 2018)

molecular target: GRK5 (Homo sapiens, UniProt P34947); test: GRK phosphorylation assay, GRK5; conditions: average of three separate experiments run in duplicate; error = standard error of the mean
Sequence (P34947 whole entry, species assumed): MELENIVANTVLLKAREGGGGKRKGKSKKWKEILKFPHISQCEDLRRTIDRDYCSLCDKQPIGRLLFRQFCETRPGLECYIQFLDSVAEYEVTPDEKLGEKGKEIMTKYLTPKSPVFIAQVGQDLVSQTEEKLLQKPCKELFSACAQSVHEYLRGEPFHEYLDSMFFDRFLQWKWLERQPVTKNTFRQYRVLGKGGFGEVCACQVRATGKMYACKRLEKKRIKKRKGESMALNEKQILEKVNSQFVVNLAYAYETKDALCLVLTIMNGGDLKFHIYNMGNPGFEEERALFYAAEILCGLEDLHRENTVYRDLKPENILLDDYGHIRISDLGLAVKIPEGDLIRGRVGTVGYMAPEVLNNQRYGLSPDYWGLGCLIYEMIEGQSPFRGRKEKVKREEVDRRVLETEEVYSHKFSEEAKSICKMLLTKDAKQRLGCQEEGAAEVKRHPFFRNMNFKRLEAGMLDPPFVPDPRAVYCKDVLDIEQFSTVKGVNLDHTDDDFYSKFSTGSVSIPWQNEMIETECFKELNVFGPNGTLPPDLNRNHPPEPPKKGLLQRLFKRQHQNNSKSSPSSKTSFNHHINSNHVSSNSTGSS

SMILES	GRK5 (IC50 μM)
CC1=C(C(=O)Nc2ccc3[nH]ncc3c2)C(c2ccc(F)c(C(=O)NC3CC4CCC3(C)C4(C)C)c2)NC(=O)N1 (stereo not shown) [Compound 32]	no sub-μM IC50 values
CC1=C(C(=O)Nc2ccc3[nH]ncc3c2)C(c2ccc(F)c(CCC(=O)N(CC(C)C)C(C)C)c2)NC(=O)N1 (stereo not shown) [Compound 41]	no sub-μM IC50 values
CC1=C(C(=O)Nc2ccc3[nH]ncc3c2)C(c2ccc(F)c(CC(=O)N3CCCC(C(C)(C)C)CC3)c2)NC(=O)N1 (stereo not shown) [Compound 31]	no sub-μM IC50 values
CC1=C(C(=O)Nc2ccc3[nH]ncc3c2)C(c2ccc(F)c(C(=O)NC(C)CCCC(C)C)c2)NC(=O)N1 (stereo not shown) [Compound 47]	no sub-μM IC50 values
COCCCC1CCCCN1C(=O)c1cc(C2NC(=O)NC(C)=C2C(=O)Nc2ccc3[nH]ncc3c2)ccc1F (stereo not shown) [Compound 48]	no sub-μM IC50 values
CCC(C)CN(CCO)C(=O)Cc1cc(C2NC(=O)NC(C)=C2C(=O)Nc2ccc3[nH]ncc3c2)ccc1F (stereo not shown) [Compound 44]	no sub-μM IC50 values
C#CCN(CC(C)C)C(=O)Cc1cc(C2NC(=O)NC(C)=C2C(=O)Nc2ccc3[nH]ncc3c2)ccc1F (stereo not shown) [Compound 38]	no sub-μM IC50 values
